The data set is described as follows: in vitro. The following applies: human, hela cells, % viability.

Each structure is given as a SMILES string.

80 compounds from paper PMC12040169 (PLOS Biology, 2025) can be followed below.

One may read the viability as a read-out of living cells in per cent, often relative to untreated cells.

Turning to `CC(C)(C)CC(C)(C)N=C(S)Nc1ccc2nc(-c3ccccn3)c(-c3ccccn3)nc2c1` [CBK265118], the viability at 28.5 h, 10 µM worked out at 91%. In the case of `CCOc1ccc(C(C)(N)C(=O)O)cc1` (centres unmarked) [CBK261362], the viability at 28.5 h, 10 µM turned out to be 121%. The figure for `CC(C)(C)NCC(O)COc1cccc2c1C[C@H](O)[C@H](O)C2` (some centres unmarked) [CBK011678] is 102%. For `COc1ccc(NC(=O)c2cnc(-c3ccc(Cl)cc3)c(-c3ccc(C(C)=O)s3)c2)cn1` [CBK036643], the viability at 28.5 h, 10 µM was determined as 92.2%. Regarding `CCCN1CCC(NC(=O)Cn2nnc3ccccc3c2=O)CC1` [CBK305581], the viability at 28.5 h, 10 µM amounted to 102%.

`COC(=O)c1c(NC(=O)C2CC=CCC2C(=O)O)sc2c1CCC(C)C2` (centres unmarked) [CBK262655]: the viability at 28.5 h, 10 µM was determined as 101%. With `CS(=O)(=O)N(Cc1ccccc1)c1ccc(C(=O)Nc2ccccc2C(=O)O)cc1` [CBK264117] the figure was 108%; with `CCN(C#N)c1nc(NC)nc(OC)n1` [CBK265697], 98.1%; with `Nc1nccnc1C(=O)N1CCN(C(=O)Cc2c[nH]c3ccccc23)CC1` [CBK298339], 88.1%. As for `O=[N+]([O-])c1ccc2c(/C=N/c3ccc(-c4nc5ccccc5s4)cc3)c(O)ccc2c1` [CBK261483], the viability at 28.5 h, 10 µM turned out to be 92.3%.

As for `[O-][n+]1c2c([n+]([O-])c3c1CCCC3)CCCC2` [CBK261714], the viability at 28.5 h, 10 µM was found to be 99.5%. `O=C(O)c1c[nH]nc1-c1cccc(Br)c1` [CBK286963]: the viability at 28.5 h, 10 µM worked out at 91.1%. As for `Cc1cccc(C)c1N1C(=O)c2ccccc2NC12C(=O)Nc1ccc([N+](=O)[O-])cc12` (centres unmarked) [CBK103749], the viability at 28.5 h, 10 µM came to 80.6%.

With `CC(Oc1cccc(Cl)c1)C(=O)NN` (centres unmarked) [CBK261207], the viability at 28.5 h, 10 µM was 90.1%. The figure for `CCOC(=O)C1CSCCN1C(=O)c1cnn(-c2ccc(Br)cc2)c1C` (centres unmarked) [CBK304550] is 102%. As for `O=C(O)CCC(=O)Nc1ccccc1Sc1ccc(Cl)cc1` [CBK287015], the viability at 28.5 h, 10 µM was 99.4%.

As to `O=C(O)C1(Oc2ccc3ncccc3c2)CCN(C2CCCCC2)CC1` [CBK306591], the viability at 28.5 h, 10 µM was 92.4%. In the case of `COc1ccc(Oc2nccc(N3CCCN(CCCO)CC3)n2)cc1OC` [CBK084158], the viability at 28.5 h, 10 µM was determined as 93.5%. With `CC(C)c1nc(NCCc2nnc3n2CCCC3)nc(N(C)C)n1` [CBK306426] the figure was 112%; with `CCOc1ccc(NC(=O)COc2ccccc2/C=C/C(=O)O)cc1` [CBK286935], 96.6%. With `O=C1c2cccc3cccc(c23)C(=O)N1CCN1CCN(CC(O)COc2ccccc2)CC1` (centres unmarked) [CBK266255], the viability at 28.5 h, 10 µM amounted to 97.4%. Turning to `FC(F)(F)c1ccc2c(c1)N(CCCN1CCCC1)c1ccccc1S2` [CBK015520C], the viability at 28.5 h, 10 µM was determined as 88%.

On to `CCc1cc2cc3c(cc2nc1SCC(=O)Nc1cccc(C(C)=O)c1)OCO3` [CBK108551], for which the viability at 28.5 h, 10 µM amounted to 92.6%. Regarding `CN(C)c1ccc(C(=O)Nc2nnc(C3=COCCO3)o2)cc1` [CBK287415], the viability at 28.5 h, 10 µM came out at 98.8%. `CCOC(=O)c1cccc(NS(=O)(=O)c2cc(Br)ccc2OC)c1` [CBK034336]: the viability at 28.5 h, 10 µM amounted to 63.3%. For `CCN1CCN(c2c(Cl)cccc2NC(=O)c2ccc(-c3cccc([N+](=O)[O-])c3)o2)CC1` [CBK268596], the viability at 28.5 h, 10 µM amounted to 86.4%. The figure for `COc1ccc2occ(C(=O)c3ccc(N)cc3)c2c1` [CBK111303] is 81.8%; for `O=C(Nc1ccccc1C(=O)O)c1cccc(S(=O)(=O)NCc2ccccc2)c1` [CBK261258] it is 98.1%. As to `CC(=O)Cn1c(CN2CCOCC2)nc2c1c(=O)n(C)c(=O)n2C` [CBK269508], the viability at 28.5 h, 10 µM was determined as 97.5%. Regarding `Cc1cc(C(=O)NCCO)ccc1Br` [CBK175092], the viability at 28.5 h, 10 µM was found to be 92%. As to `CN1CC[C@H](c2nc3ncccc3[nH]2)C1` [CBK289384], the viability at 28.5 h, 10 µM came to 76.8%. As to `O=C(CN1C(=O)c2ccccc2S1(=O)=O)Nc1ccccc1-c1ccccc1` [CBK266390], the viability at 28.5 h, 10 µM came out at 102%. The figure for `O=C(CSc1ccccn1)Nc1ccc(C(=O)O)cc1` [CBK286605] is 87.2%; for `Cc1ccc(C)c(S(=O)(=O)NCCCn2ccnc2)c1` [CBK262205] it is 109%; for `c1ccc(COc2ccc3[nH]c4c(c3c2)CCNC42CCCN(CC3CC3)C2)cc1` (centres unmarked) [CBK040619] it is 100%. With `CCn1c2ccccc2c2cc(C#N)c(=O)[nH]c21` [CBK013595] the figure was 93.9%; with `O=c1[nH]c2ccccc2n1CCCN1CCC(Cc2ccccc2)CC1` [CBK138318], 104%; with `Cc1ccc(C(=O)N2CCN(c3ccc(NC(=O)c4ccc(-c5cccc([N+](=O)[O-])c5)o4)cc3)CC2)cc1` [CBK266355], 107%. Turning to `COCCn1c(CN2CCOCC2)nc2c1c(=O)[nH]c(=O)n2C` [CBK269890], the viability at 28.5 h, 10 µM worked out at 100%. Regarding `COc1cccc(C(=O)N2CCC(NC(=O)c3ccccc3C(F)(F)F)CC2)c1` [CBK155024], the viability at 28.5 h, 10 µM is 99.4%.

For `O=C(O)c1ccccc1N1C(=O)C2CC=C(Cl)CC2C1=O` (centres unmarked) [CBK287007], the viability at 28.5 h, 10 µM stood at 94.4%. As to `Cc1ccc(CNC(=O)Cc2csc(N3CCCC3=O)n2)n1C` [CBK305642], the viability at 28.5 h, 10 µM worked out at 98.6%. `O=C(Cc1cccnc1)N1Cc2ccccc2C1` [CBK200320]: the viability at 28.5 h, 10 µM was found to be 90.5%.

Turning to `COc1ccc(-c2cn[nH]c2-c2ccc(OCCN3CCOCC3)cc2O)cc1` [CBK288112], the viability at 28.5 h, 10 µM was 97%. With `CCN(Cc1ccccc1)[C@@H](CO)Cc1ccc(OC)cc1` [CBK073856T], the viability at 28.5 h, 10 µM was 89.6%. Turning to `O=C(CCN1C(=O)/C(=C\C=C\c2ccccc2)SC1=S)Nc1cccc(C(=O)O)c1` [CBK264798], the viability at 28.5 h, 10 µM was 109%. On to `Fc1ccc2c(-c3ccccc3)noc2c1` [CBK025975], for which the viability at 28.5 h, 10 µM was determined as 86.8%.

For `Cc1c(OCc2ccc(C(=O)O)cc2)ccc2c(-c3ccccc3)cc(=O)oc12` [CBK296080], the viability at 28.5 h, 10 µM worked out at 117%.

For `Cc1ccc(-c2cc3ccccn3c2C(=O)CSc2nncn2C)cc1` [CBK269580], the viability at 28.5 h, 10 µM was 83.5%. For `CC(C)(C)OC(=O)N1CCC[C@@H]([C@H](O)c2nccs2)C1` [CBK284283], the viability at 28.5 h, 10 µM is 81%.

In the case of `O=C(Nc1cc2cccnc2c(Br)n1)Nc1ccc(F)cc1C(F)(F)F` [CBK063287], the viability at 28.5 h, 10 µM was determined as 88.8%.

As to `CS(=O)(=O)c1ccc(-c2ccc(CN3CCN(C(=O)Cc4ccc(F)cc4F)CC3)cn2)cc1` [CBK162618T], the viability at 28.5 h, 10 µM was determined as 122%. Turning to `CNC(=O)C1CCCCN1C(=O)c1cn(CCOC)c2ccccc12` (centres unmarked) [CBK306308], the viability at 28.5 h, 10 µM amounted to 94.8%.

As for `COc1ccccc1-c1cc([C@H]2CN3CC[C@H]2C[C@@H]3CNC(=O)c2ccco2)nc(C)n1` [CBK289119], the viability at 28.5 h, 10 µM was 105%. Regarding `Cc1cccc(/N=C(\N)Nc2nc(=O)cc(C)[nH]2)c1` [CBK288144], the viability at 28.5 h, 10 µM was determined as 93.1%.

As for `CC(=O)Nc1cccc(-n2nnnc2SCC2CCCCO2)c1` (centres unmarked) [CBK305746], the viability at 28.5 h, 10 µM stood at 91.5%. On to `COCCN1C(=O)C2(CC(=O)N(CCN3CCCC3=O)C2=O)c2cc(OC)ccc21` (centres unmarked) [CBK075189], for which the viability at 28.5 h, 10 µM is 92.4%.

Turning to `COc1ccc(C(=O)C2=C(O)C(=O)N(Cc3cccnc3)C2c2cccc(OC)c2OC)cc1C` (centres unmarked) [CBK264906], the viability at 28.5 h, 10 µM came to 92.8%.

Consider `CC(C)NCC(O)c1c2c(cc3c1CCC3)CCC2` (centres unmarked) [CBK012972F], for which the viability at 28.5 h, 10 µM is 108%. For `O=C(O)CCC(NC(=O)c1ccc(-c2ccc(F)cc2)s1)C(=O)O` (centres unmarked) [CBK295172], the viability at 28.5 h, 10 µM was 102%. As to `CC(C)c1nnc(C2(c3ccc(Br)cc3)CCOCC2)o1` [CBK306230], the viability at 28.5 h, 10 µM amounted to 86.4%. For `Cc1noc(C)c1S(=O)(=O)n1c(=O)n(Cc2ccc(S(C)(=O)=O)cc2)c2ccccc21` [CBK106536], the viability at 28.5 h, 10 µM came to 93.4%. As for `COc1cccc(C(CNS(=O)(=O)c2ccc3c(c2)OCCCO3)N(C)C)c1` (centres unmarked) [CBK298270], the viability at 28.5 h, 10 µM was 98.2%.

`CCc1nc2ccc(C(=O)N3CCCCC3)cn2c1N(C)C(=O)c1cccc(OC)c1` [CBK146392]: the viability at 28.5 h, 10 µM came to 113%.

For the compound `Cc1sc2nc(C)n(C3CCN(C(=O)C(C)C)CC3)c(=O)c2c1C` [CBK282414], the viability at 28.5 h, 10 µM came to 88.7%.

In the case of `Cc1nc2sc3c(c2c2nc(CCC(=O)O)nn12)CC(C)(C)OC3` [CBK269168], the viability at 28.5 h, 10 µM is 81.4%. For `Cc1cc(-c2cn3ccnc3c(NC3CC3)n2)cc(C)c1O` [CBK066747], the viability at 28.5 h, 10 µM was 86.5%. Turning to `O=C(Cc1ccn[nH]1)N1CC(O)CC1c1cc(F)ccc1F` (centres unmarked) [CBK304872], the viability at 28.5 h, 10 µM amounted to 92.3%. Turning to `CNC(=O)c1ccc(-c2cccc(Cl)c2Cl)nc1N1CCOCC1` [CBK106215], the viability at 28.5 h, 10 µM was found to be 109%.

For the compound `Cc1cnoc1-c1cc(Br)cc(Br)c1O` [CBK012420], the viability at 28.5 h, 10 µM came out at 104%.

`Cc1ccc2nsnc2c1NC(=O)CN1CCC(C)CC1` [CBK269568]: the viability at 28.5 h, 10 µM turned out to be 86.2%. With `COc1ccc(C(=O)NC(=S)Nc2ccc(N3CCN(C)CC3)cc2)cc1[N+](=O)[O-]` [CBK266098C], the viability at 28.5 h, 10 µM turned out to be 89%.

In the case of `CC(=O)NCCSc1ncccc1C(F)(F)F` [CBK105296], the viability at 28.5 h, 10 µM worked out at 101%. With `O=C(O)CSc1nc2nc3c(cc2c(=O)n1Cc1ccccc1)CCCC3` [CBK286662] the figure was 86.4%; with `Cc1nc(C)n(CC(=O)N[C@H]2C3CCCCC3[C@@H]2c2ccccc2)n1` (some centres unmarked) [CBK285128], 94.7%; with `CCc1cc(=O)[nH]c(-c2ccc(N3CCOCC3C)nc2)n1` (centres unmarked) [CBK305532], 95.7%. As for `CCCc1[nH]nc(O)c1CCc1ccccc1` [CBK075083], the viability at 28.5 h, 10 µM came out at 108%. Take `O=C(CN1CCC(c2ccc(F)cc2)CC1)NCc1ccco1` [CBK283641]: the viability at 28.5 h, 10 µM came to 94.9%.

`CC(C)n1c(=O)n(CC(=O)N(C)C2CCCCC2)c2cccnc21` [CBK283695]: the viability at 28.5 h, 10 µM turned out to be 95.6%. Regarding `O=C(O)/C=C/c1cccc(/C=C/C(=O)O)c1` [CBK261650], the viability at 28.5 h, 10 µM was 89.9%.
